The record followed here is patent US20240208992A1, “MACROCYCLES AS CFTR MODULATORS” (Idorsia Pharmaceuticals Ltd, priority 2021, published 2024).

This experiment addresses human F508del-CFTR (Homo sapiens, UniProt P13569, DEL508-508). As to the kind of experiment: F508del-CFTR cell surface expression (corrector activity), DiscoveRx ß-galactosidase complementation chemiluminescence assay in recombinant U2OS cell line.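 For all read-outs here: U2OS cells co-expressing ProLink-tagged F508del-CFTR and a membrane-anchored enzyme acceptor, where more surface CFTR restores β-galactosidase activity measured by chemiluminescence.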 Particulars: U2OS cell line, 16h compound incubation; for EC50: EC50, F508del-CFTR cell surface expression, geomean values; for Emax: U2OS, in relation to the Emax of the corrector lumacaftor (=100%), arithmetic mean values.

Sequence of human F508del-CFTR (P13569 with tags, fused parts or gaps DEL508-508): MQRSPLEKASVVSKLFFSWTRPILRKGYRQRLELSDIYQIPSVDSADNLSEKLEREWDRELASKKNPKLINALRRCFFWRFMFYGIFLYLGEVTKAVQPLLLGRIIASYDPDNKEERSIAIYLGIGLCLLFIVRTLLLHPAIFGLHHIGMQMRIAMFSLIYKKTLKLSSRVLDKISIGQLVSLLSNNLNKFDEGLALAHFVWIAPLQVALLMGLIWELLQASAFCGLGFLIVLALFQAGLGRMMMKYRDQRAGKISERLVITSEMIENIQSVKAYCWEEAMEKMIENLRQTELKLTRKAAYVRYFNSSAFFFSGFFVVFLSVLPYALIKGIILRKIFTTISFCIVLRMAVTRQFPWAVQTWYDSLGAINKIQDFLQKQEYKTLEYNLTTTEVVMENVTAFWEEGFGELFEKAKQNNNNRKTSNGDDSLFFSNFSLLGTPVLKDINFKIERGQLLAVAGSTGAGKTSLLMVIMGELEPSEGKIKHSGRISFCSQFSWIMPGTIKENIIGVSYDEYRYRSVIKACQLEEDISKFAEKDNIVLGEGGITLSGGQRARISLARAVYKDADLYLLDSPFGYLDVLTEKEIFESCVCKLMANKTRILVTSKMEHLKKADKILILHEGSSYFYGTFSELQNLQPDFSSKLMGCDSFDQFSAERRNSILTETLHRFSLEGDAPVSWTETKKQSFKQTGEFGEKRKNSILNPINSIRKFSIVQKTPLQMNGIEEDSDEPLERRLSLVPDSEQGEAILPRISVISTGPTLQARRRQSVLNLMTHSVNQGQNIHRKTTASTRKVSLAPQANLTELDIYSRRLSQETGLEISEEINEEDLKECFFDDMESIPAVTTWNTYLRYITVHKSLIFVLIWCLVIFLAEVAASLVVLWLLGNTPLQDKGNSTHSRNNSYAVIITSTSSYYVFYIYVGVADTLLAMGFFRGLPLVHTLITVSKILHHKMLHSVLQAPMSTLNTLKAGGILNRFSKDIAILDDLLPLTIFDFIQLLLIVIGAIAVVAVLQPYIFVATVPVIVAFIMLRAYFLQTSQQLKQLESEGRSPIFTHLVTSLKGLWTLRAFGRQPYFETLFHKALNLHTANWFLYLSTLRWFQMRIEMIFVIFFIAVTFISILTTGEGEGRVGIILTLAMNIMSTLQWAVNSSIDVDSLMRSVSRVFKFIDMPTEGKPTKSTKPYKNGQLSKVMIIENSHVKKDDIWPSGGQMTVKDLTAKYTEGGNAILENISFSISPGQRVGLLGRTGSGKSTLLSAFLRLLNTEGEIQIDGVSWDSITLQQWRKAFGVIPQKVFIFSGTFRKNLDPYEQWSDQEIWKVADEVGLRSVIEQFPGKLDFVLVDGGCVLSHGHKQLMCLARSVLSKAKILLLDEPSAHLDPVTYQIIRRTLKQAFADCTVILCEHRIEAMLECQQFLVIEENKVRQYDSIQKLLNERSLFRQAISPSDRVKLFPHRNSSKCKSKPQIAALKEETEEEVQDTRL

For orientation: EC50 means the concentration giving half of the maximal effect. In general, Emax refers to the size of the effect at its maximum, as opposed to the concentration needed. `CC(C)C[C@H]1C(=O)N(CCC2CCC3(CCC3)O2)CC(=O)N[C@H](Cc2ccccc2)COc2ccc3ccccc3c2C(=O)N[C@H](C(=O)NCCc2ccc3c(c2)OCO3)CC(=O)N1C` (stereo partly drawn) [Example 331, (3S,7S,13R)-9-(2-(5-oxaspiro[3.4]octan-6-yl)ethyl)-N-(2-(benzo[d][1,3]dioxol-5-yl)ethyl)-13-benzyl-7-isobutyl-6-methyl-1,5,8,11-tetraoxo-1,2,3,4,5,6,7,8,9,10,11,12,13,14-tetradecahydronaphtho[1,2-p][1]oxa[4,7,10,14]tetraazacycloheptadecine-3-carboxamide]: the EC50 is 0.121 µM and the maximal effect (Emax) stood at 240%.

Take `CC(C)C[C@H]1C(=O)N(CCC2CCCO2)CC(=O)N[C@H](Cc2ccccc2)COc2ccc3ccccc3c2C(=O)N[C@H](C(=O)NCCc2ccc3c(c2)OCO3)CC(=O)N1C` (stereo partly drawn) [Example 332, (3S,7S,13R)-N-(2-(benzo[d][1,3]dioxol-5-yl)ethyl)-13-benzyl-7-isobutyl-6-methyl-1,5,8,11-tetraoxo-9-(2-(tetrahydrofuran-2-yl)ethyl)-1,2,3,4,5,6,7,8,9,10,11,12,13,14-tetradecahydronaphtho[1,2-p][1]oxa[4,7,10,14]tetraazacycloheptadecine-3-carboxamide]: the EC50 was found to be 0.309 µM and the Emax worked out at 183%.

`CC(C)C[C@H]1C(=O)N(CCC2CCCOC2)CC(=O)N[C@H](Cc2ccccc2)COc2ccc3ccccc3c2C(=O)N[C@H](C(=O)NCCc2ccc3c(c2)OCO3)CC(=O)N1C` (stereo partly drawn) [Example 333, (3S,7S,13R)-N-(2-(benzo[d][1,3]dioxol-5-yl)ethyl)-13-benzyl-7-isobutyl-6-methyl-1,5,8,11-tetraoxo-9-(2-(tetrahydro-2H-pyran-3-yl)ethyl)-1,2,3,4,5,6,7,8,9,10,11,12,13,14-tetradecahydronaphtho[1,2-p][1]oxa[4,7,10,14]tetraazacycloheptadecine-3-carboxamide]: the EC50 came out at 0.345 µM and the maximum response (Emax) was 182%.

As to `CC(C)C[C@H]1C(=O)N(CCC2CCC3(CCOCC3)CO2)CC(=O)N[C@H](Cc2ccccc2)COc2ccc3ccccc3c2C(=O)N[C@H](C(=O)NCCc2ccc3c(c2)OCO3)CC(=O)N1C` (stereo partly drawn) [Example 334, (3S,7S,13R)-9-(2-(2,9-dioxaspiro[5.5]undecan-3-yl)ethyl)-N-(2-(benzo[d][1,3]dioxol-5-yl)ethyl)-13-benzyl-7-isobutyl-6-methyl-1,5,8,11-tetraoxo-1,2,3,4,5,6,7,8,9,10,11,12,13,14-tetradecahydronaphtho[1,2-p][1]oxa[4,7,10,14]tetraazacycloheptadecine-3-carboxamide], the EC50 was determined as 0.323 µM and the Emax stood at 232%.

`CC(C)C[C@H]1C(=O)N(CCOC(C)(C)C)CC(=O)N[C@H](Cc2ccccc2)COc2ccc3ccccc3c2C(=O)N[C@H](C(=O)NCCc2ccc3c(c2)OCO3)CC(=O)N1C` [Example 335, (3S,7S,13R)-N-(2-(benzo[d][1,3]dioxol-5-yl)ethyl)-13-benzyl-9-(2-(tert-butoxy)ethyl)-7-isobutyl-6-methyl-1,5,8,11-tetraoxo-1,2,3,4,5,6,7,8,9,10,11,12,13,14-tetradecahydronaphtho[1,2-p][1]oxa[4,7,10,14]tetraazacycloheptadecine-3-carboxamide]: the EC50 is 0.27 µM and the maximal effect (Emax) was found to be 262%.

Regarding `COC1CC(CCN2CC(=O)N[C@H](Cc3ccccc3)COc3ccc4ccccc4c3C(=O)N[C@H](C(=O)NCCc3ccc4c(c3)OCO4)CC(=O)N(C)[C@@H](CC(C)C)C2=O)C1` (stereo partly drawn) [Example 336, (3S,7S,13R)-N-(2-(benzo[d][1,3]dioxol-5-yl)ethyl)-13-benzyl-7-isobutyl-9-(2-(3-methoxycyclobutyl)ethyl)-6-methyl-1,5,8,11-tetraoxo-1,2,3,4,5,6,7,8,9,10,11,12,13,14-tetradecahydronaphtho[1,2-p][1]oxa[4,7,10,14]tetraazacycloheptadecine-3-carboxamide], the concentration giving a half-maximal response (EC50) was determined as 0.207 µM and the maximal response (Emax) was 212%.
